Test results published in ChEMBL document CHEMBL1909046, “DrugMatrix in vitro pharmacology data”.
pIC50, pKi: −log10 of the molar value.

Experiments:
[1] = target: Sodium-dependent noradrenaline transporter (Homo sapiens, UniProt P23975); experiment: DRUGMATRIX: Norepinephrine Transporter radioligand binding (ligand: [125I] RTI-55); type: cell membranes, MDCK, Membrane; conditions: Not Active = under 50% inhibition at 10 µM
[2] = target: T1, D(4) dopamine receptor (Homo sapiens, UniProt P21917); experiment: DRUGMATRIX: Dopamine D4.2 radioligand binding (ligand: [3H] Spiperone); type: cell membranes, CHO-K1, Membrane; conditions: cho-k1; Not Active = under 50% inhibition at 10 µM
T1 sequence (P21917 whole entry): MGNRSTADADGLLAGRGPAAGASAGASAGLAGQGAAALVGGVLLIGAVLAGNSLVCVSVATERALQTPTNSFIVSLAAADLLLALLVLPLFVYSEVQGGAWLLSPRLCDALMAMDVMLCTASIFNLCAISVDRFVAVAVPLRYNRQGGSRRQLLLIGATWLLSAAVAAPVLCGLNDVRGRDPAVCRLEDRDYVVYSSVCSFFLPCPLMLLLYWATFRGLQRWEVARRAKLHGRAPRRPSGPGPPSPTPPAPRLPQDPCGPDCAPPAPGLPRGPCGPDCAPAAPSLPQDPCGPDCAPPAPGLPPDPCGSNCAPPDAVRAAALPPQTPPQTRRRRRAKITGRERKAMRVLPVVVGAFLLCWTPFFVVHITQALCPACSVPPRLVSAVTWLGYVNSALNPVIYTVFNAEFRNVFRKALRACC

[3] = target: Melanocortin receptor 3 (Homo sapiens, UniProt P41968); type: cell membranes, HEK293, Membrane; conditions: hek293; also: in other assays of this panel Not Active means under 50% inhibition at 10 µM
[4] = target: T2, Nitric oxide synthase, inducible (Mus musculus, UniProt P29477); set-up: species or system Escherichia coli;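 also: inhibition of iNOS enzyme activity measured with L-arginine as substrate; in other assays of this panel Not Active means under 50% inhibition at 10 µM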
T2 sequence (P29477 whole entry): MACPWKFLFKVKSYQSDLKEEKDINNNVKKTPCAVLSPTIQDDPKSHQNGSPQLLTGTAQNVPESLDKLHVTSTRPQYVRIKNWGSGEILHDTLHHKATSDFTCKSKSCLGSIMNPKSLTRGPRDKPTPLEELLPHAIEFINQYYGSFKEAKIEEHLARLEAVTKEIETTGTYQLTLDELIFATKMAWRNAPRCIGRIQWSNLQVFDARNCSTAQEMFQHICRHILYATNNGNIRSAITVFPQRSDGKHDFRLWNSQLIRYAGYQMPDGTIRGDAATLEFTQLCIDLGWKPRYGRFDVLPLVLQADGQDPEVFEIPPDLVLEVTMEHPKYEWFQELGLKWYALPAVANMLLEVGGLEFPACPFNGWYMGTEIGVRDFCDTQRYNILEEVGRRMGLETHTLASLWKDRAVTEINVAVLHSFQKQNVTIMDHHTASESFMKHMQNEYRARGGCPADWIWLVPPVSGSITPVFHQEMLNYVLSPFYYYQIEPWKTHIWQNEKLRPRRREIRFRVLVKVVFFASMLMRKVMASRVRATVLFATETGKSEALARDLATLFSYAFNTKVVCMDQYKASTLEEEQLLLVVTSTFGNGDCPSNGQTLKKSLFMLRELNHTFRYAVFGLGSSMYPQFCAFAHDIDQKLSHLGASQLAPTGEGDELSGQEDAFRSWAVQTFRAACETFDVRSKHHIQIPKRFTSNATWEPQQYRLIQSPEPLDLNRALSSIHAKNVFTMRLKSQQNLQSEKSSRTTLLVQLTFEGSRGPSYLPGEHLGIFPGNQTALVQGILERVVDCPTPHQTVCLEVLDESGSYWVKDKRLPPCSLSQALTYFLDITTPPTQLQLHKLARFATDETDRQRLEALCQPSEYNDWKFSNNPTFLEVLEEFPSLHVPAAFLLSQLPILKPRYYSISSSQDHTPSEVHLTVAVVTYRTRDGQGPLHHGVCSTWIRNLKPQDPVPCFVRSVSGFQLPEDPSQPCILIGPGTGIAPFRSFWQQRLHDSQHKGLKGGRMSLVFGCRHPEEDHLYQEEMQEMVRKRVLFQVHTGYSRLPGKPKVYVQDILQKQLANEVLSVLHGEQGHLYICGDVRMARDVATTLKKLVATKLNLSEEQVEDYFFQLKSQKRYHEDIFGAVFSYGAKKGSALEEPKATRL

[5] = target: T3, Caspase-1 (Homo sapiens, UniProt P29466); set-up: species or system Escherichia coli;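 also: Caspase-1 enzyme inhibition assay with a peptide substrate; in other assays of this panel Not Active means under 50% inhibition at 10 µM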
T3 sequence (P29466 whole entry): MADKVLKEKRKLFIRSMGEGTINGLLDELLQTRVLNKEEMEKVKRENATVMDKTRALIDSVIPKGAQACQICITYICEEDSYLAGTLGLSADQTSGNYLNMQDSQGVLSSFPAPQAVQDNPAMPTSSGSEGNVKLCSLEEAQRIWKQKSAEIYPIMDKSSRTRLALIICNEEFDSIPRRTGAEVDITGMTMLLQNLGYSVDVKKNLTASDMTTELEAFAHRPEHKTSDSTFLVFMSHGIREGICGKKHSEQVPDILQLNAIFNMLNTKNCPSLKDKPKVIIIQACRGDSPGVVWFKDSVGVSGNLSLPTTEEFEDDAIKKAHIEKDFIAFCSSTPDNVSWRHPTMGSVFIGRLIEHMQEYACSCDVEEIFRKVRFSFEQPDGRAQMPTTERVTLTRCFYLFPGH

[6] = target: T4, Adenosine receptor A3 (Homo sapiens, UniProt P0DMS8); type: cell membranes, CHO-K1, Membrane;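 also: radioligand binding assay with AB-MECA serving as the labeled ligand; in other assays of this panel Not Active means under 50% inhibition at 10 µM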
T4 sequence (P0DMS8 whole entry): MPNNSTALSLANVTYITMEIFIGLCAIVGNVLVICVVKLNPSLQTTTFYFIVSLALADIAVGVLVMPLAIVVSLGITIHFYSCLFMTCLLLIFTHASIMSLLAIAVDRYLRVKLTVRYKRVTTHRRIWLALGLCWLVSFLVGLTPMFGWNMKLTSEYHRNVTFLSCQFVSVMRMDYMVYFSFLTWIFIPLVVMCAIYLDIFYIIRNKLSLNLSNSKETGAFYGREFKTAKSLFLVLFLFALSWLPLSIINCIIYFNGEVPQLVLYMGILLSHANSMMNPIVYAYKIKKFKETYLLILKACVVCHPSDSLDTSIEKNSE

[7] = target: Cytochrome P450 2C9 (Homo sapiens, UniProt P11712); conditions: bti-tn-5b1-4; also: in other assays of this panel Not Active means under 50% inhibition at 10 µM
[8] = target: Voltage-gated inwardly rectifying potassium channel KCNH2 (Homo sapiens, UniProt Q12809); conditions: hek293; also: in other assays of this panel Not Active means under 50% inhibition at 10 µM
Chain of Voltage-gated inwardly rectifying potassium channel KCNH2 (Q12809 whole entry): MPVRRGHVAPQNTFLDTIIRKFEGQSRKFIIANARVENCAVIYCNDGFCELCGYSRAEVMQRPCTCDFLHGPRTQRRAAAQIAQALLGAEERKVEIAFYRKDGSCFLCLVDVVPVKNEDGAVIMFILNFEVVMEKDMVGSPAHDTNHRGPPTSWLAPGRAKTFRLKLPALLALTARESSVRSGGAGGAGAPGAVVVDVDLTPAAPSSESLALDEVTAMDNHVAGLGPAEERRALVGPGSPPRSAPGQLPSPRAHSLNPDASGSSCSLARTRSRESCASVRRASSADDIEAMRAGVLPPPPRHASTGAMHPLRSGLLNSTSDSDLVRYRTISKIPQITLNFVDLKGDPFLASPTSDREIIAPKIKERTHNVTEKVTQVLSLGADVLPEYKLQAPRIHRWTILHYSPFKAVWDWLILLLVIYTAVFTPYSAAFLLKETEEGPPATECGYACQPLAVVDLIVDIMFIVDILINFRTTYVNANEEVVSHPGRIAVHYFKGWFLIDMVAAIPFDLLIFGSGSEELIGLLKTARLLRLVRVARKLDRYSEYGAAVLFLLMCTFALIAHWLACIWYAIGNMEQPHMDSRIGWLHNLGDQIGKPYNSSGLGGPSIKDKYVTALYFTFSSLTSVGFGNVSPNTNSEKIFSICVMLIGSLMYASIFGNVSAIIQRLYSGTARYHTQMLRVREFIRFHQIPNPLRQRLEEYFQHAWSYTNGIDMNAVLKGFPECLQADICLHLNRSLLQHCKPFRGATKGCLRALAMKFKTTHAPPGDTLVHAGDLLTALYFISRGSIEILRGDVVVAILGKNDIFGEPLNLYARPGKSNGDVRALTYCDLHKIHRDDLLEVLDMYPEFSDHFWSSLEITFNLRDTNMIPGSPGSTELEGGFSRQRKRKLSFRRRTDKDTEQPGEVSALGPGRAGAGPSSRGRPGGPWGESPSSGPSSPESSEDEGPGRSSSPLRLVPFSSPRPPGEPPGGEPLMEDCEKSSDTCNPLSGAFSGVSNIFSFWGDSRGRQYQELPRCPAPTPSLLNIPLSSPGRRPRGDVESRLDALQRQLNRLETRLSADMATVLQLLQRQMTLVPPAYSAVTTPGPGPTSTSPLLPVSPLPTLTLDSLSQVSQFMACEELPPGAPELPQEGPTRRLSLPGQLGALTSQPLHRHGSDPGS

Chain of Cytochrome P450 2C9 (P11712 whole entry): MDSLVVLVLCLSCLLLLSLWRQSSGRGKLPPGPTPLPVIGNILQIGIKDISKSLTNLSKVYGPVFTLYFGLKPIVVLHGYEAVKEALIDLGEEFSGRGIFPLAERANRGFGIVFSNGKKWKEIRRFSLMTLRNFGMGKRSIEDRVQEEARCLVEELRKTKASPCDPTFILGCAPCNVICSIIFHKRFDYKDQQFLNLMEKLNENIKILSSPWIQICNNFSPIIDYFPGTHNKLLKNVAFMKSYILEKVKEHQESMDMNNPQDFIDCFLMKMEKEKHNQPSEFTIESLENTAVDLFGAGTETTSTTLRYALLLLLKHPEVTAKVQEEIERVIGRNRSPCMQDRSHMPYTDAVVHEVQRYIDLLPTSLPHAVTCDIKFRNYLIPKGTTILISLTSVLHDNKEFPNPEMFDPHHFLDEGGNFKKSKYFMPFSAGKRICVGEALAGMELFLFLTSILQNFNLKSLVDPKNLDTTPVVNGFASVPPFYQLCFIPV
Chain of Melanocortin receptor 3 (P41968 whole entry): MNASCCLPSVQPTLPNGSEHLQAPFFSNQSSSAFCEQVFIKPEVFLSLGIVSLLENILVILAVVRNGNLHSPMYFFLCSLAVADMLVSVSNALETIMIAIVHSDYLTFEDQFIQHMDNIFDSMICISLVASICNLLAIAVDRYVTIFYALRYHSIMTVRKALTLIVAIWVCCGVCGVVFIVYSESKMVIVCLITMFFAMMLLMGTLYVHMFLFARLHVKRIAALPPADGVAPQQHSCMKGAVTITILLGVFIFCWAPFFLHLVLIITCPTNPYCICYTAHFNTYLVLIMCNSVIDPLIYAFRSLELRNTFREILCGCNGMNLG
Chain of Sodium-dependent noradrenaline transporter (P23975 whole entry): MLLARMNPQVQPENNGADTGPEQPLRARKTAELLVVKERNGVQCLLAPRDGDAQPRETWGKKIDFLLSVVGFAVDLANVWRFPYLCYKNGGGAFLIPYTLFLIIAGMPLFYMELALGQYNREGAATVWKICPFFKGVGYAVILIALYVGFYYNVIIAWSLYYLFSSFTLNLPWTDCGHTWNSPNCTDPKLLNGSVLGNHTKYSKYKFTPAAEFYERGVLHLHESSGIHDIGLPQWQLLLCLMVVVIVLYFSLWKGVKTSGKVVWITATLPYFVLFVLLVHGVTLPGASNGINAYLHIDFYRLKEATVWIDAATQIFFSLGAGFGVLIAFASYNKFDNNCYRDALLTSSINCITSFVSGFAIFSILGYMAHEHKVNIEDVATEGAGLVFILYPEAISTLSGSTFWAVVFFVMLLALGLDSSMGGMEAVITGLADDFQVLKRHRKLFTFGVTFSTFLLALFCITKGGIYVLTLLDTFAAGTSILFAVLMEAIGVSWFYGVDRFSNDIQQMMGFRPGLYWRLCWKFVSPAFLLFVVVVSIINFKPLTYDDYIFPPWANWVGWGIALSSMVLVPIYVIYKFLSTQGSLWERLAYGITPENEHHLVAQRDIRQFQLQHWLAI

| Molecule | IC50 ([1]; mdck) | IC50 [2] | IC50 [3] | IC50 [4] | IC50 [5] | IC50 ([6]; cho-k1) | IC50 [7] | Ki [7] | IC50 [8] | Ki [8] | Ki ([1]; mdck) | Ki [2] | Ki [3] | Ki [4] | Ki [5] | Ki ([6]; cho-k1) | pIC50 ([1]; read-out: IC50) | pKi ([1]; read-out: Ki) | pIC50 ([6]; read-out: IC50) | pKi ([6]; read-out: Ki) |
| --- | --- | --- | --- | --- | --- | --- | --- | --- | --- | --- | --- | --- | --- | --- | --- | --- | --- | --- | --- | --- |
| C[C@H](C(=O)O)c1ccc2oc(-c3ccc(F)cc3)nc2c1 [FLUNOXAPROFEN] | Not Active | Not Active | Not Active | Not Active | Not Active | Not Active | Not Active | Not Active | Not Active | Not Active |  |  |  |  |  |  |  |  |  |  |
| CCN1CCN(c2cc3c(cc2F)c(=O)c(C(=O)O)cn3C2CC2)CC1 [ENROFLOXACIN] | Not Active | Not Active | Not Active | Not Active | Not Active | Not Active | Not Active | Not Active | Not Active | Not Active |  |  |  |  |  |  |  |  |  |  |
| C[N+](C)(C)CCOP(=O)([O-])OC[C@H](O)CO | Not Active | Not Active | Not Active | Not Active | Not Active | Not Active | Not Active | Not Active | Not Active | Not Active |  |  |  |  |  |  |  |  |  |  |
| O=C(Nc1ccc(Cl)c(Cl)c1)c1cc(Cl)cc(Cl)c1O [3,3',4',5-TETRACHLOROSALICYLANILIDE] | Not Active | Not Active | Not Active | Not Active | Not Active | Not Active | Not Active | Not Active | Not Active | Not Active |  |  |  |  |  |  |  |  |  |  |
| O=C(O)COC(=O)Cc1ccccc1Nc1c(Cl)cccc1Cl [ACECLOFENAC] | Not Active | Not Active | Not Active | Not Active | Not Active | Not Active | Not Active | Not Active | Not Active | Not Active |  |  |  |  |  |  |  |  |  |  |
| O=c1[nH]c2ccccc2c2ccccc12 | Not Active | Not Active | Not Active | Not Active | Not Active | Not Active | Not Active | Not Active | Not Active | Not Active |  |  |  |  |  |  |  |  |  |  |
| C=CCN1CC[C@]23c4c5ccc(O)c4O[C@H]2/C(=N/N=C2\CC[C@@]4(O)[C@H]6Cc7ccc(O)c8c7[C@@]4(CCN6CC=C)[C@H]2O8)CC[C@@]3(O)[C@H]1C5 [NALOXONAZINE] | Not Active | Not Active | Not Active | Not Active | Not Active | Not Active | Not Active | Not Active | Not Active | Not Active |  |  |  |  |  |  |  |  |  |  |
| ClC1=C(Cl)[C@]2(Cl)[C@@H]3[C@@H]4C[C@@H]([C@H]5O[C@@H]45)[C@@H]3[C@@]1(Cl)C2(Cl)Cl [DIELDRIN] | Not Active | Not Active | Not Active | Not Active | Not Active | Not Active | Not Active | Not Active | Not Active | Not Active |  |  |  |  |  |  |  |  |  |  |
| COPPER(II) OXIDE | Not Active | Not Active | Not Active | Not Active | Not Active | Not Active | Not Active | Not Active | Not Active | Not Active | Not Active | Not Active | Not Active | Not Active | Not Active | Not Active |  |  |  |  |
| CCO [ALCOHOL] | Not Active | Not Active | Not Active | Not Active | Not Active | Not Active | Not Active | Not Active | Not Active | Not Active |  |  |  |  |  |  |  |  |  |  |
| CC(N)Cc1c[nH]c2ccc(OCc3cccs3)cc12 (stereo not drawn) [BW-723C86] |  | Not Active | Not Active | Not Active | Not Active | Not Active | Not Active | Not Active | Not Active | Not Active |  |  |  |  |  |  | 5.44 | 5.44 |  |  |
| c1ccc2sc(SSc3nc4ccccc4s3)nc2c1 [BENZOTHIAZYL DISULFIDE] | Not Active | Not Active | Not Active | Not Active | Not Active |  | Not Active | Not Active | Not Active | Not Active |  |  |  |  |  |  |  |  | 6.46 | 6.71 |
| CC(C)Cc1ccc([C@H](C)C(=O)O)cc1 [DEXIBUPROFEN] | Not Active | Not Active | Not Active | Not Active | Not Active | Not Active | Not Active | Not Active | Not Active | Not Active |  |  |  |  |  |  |  |  |  |  |
| Cl.NC[C@H]1CC[C@H](C(=O)Oc2ccc(CCC(=O)O)cc2)CC1 [CETRAXATE HYDROCHLORIDE] | Not Active | Not Active | Not Active | Not Active | Not Active | Not Active | Not Active | Not Active | Not Active | Not Active |  |  |  |  |  |  |  |  |  |  |
| Nc1nc(N)c2nc(CNc3ccc(C(=O)N[C@@H](CCC(=O)O)C(=O)O)cc3)cnc2n1 [AMINOPTERIN] | Not Active | Not Active | Not Active | Not Active | Not Active | Not Active | Not Active | Not Active | Not Active | Not Active |  |  |  |  |  |  |  |  |  |  |
| NC(=O)NC(=O)Cc1ccccc1 [PHENACEMIDE] | Not Active | Not Active | Not Active | Not Active | Not Active | Not Active | Not Active | Not Active | Not Active | Not Active |  |  |  |  |  |  |  |  |  |  |
| C[N+](C)(C)CCOC(N)=O.[Cl-] [CARBACHOL] | Not Active |  | Not Active | Not Active | Not Active | Not Active | Not Active | Not Active | Not Active | Not Active |  | Not Active |  |  |  |  |  |  |  |  |
